Data from publication PMC13576449, “Small-Molecule Activators of PRMT1: Discovery, SAR Analyses, and Proapoptotic Effects in Pancreatic Cancer Cells” (Journal of Medicinal Chemistry, 2026).

What was measured:
FLAG-tagged PRMT1 [1] = target: T1, FLAG-tagged PRMT1 (Rattus norvegicus, UniProt Q63009); assay: Liquid in vitro methyltransferase assay, scintillation counting (GST-GAR); assay type: biochemical; settings: 200 μM compound, except TR-033 100 μM; vs DMSO control
T1 construct: Full-length FLAG-tagged PRMT protein; made in house; host or cells: Sf9 insect cells (baculovirus)
T1 sequence (Q63009 whole entry): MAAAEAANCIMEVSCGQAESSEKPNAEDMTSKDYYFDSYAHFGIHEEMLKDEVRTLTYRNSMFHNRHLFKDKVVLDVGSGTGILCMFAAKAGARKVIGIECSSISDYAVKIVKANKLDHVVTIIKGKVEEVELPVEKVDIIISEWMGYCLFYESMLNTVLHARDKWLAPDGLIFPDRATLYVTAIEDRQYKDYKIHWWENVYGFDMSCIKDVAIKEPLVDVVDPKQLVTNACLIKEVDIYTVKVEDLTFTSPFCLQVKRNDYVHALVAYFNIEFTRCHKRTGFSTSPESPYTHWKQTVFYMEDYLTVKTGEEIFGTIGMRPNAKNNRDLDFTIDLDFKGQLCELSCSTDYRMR
Protocol: As negative control (Ctrl (−)), PRMT1 enzymes and [^14C-methyl]-SAM were incubated without substrates. Subsequently, samples were separated by SDS-PAGE, blotted, and analyzed by autoradiography. Substrates (H2A, H4 or GST-GAR) and molecular weights (kDa) of the protein marker are indicated. Black lines designate composite images, assembled from the same blots and exposure times. The methylation signals of the substrates were densitometrically quantified, and expressed relative to the DMSO-treated control, as indicated by the numbers below the autoradiographs. Representative results are depicted, with quantification graphs (below the autoradiographs in A and B) summarizing biological replicates. […] Subsequently, GST-GAR was immobilized on glutathione-beads and PRMT1 activity was measured by quantifying the incorporation of ^14C-methyl groups (in cpm) using liquid scintillation counting. […] Cell viability was quantified using the CellTiter-Glo assay. Viability of compound-treated cells is shown in % relative to the viability of solvent-treated cells, which was set to 100% (mean ± SD, n = 3), and then plotted against the logarithm of the compound concentrations. Concentration-viability curves were fitted by nonlinear regression, with the half-maximal inhibitory concentration (IC50) of the compounds for PANC-1 cell viability and the coefficient of determination (R^2) indicated. […] Subsequently, whole-cell extracts were prepared and analyzed by Western blot using antibodies against ADMA, ACTIN (ACT), and VINCULIN (VINC), of which the latter two stainings served as loading controls. Molecular weights (kDa) of the protein marker are indicated. All the ADMA signals per lane were densitometrically quantified, normalized to the signal of the respective loading control and expressed relative to the DMSO-treated control, as indicated by the numbers below the immunostainings.
For the liquid methyltransferase assays, the reaction mixtures, containing 1–2 μg eluted FLAG-tagged PRMT1 and as the substrate 1–2 μg eluted GST-GAR protein at a total volume of 20 μL in PBS, were preincubated in the absence (DMSO) or presence of compounds at room temperature and under agitation (800 rpm) for 30 min. […] After washing, 1 mL scintillation liquid (Rotiszint ecoplus, Roth) was added to the bead-bound GST-GAR and incorporated ^14C-methyl groups were quantified using a scintillation counter (LS6500, Beckman Coulter). Background signal was determined using 1 mL of scintillation fluid alone and was subtracted from the measured counts of the enzymatic reactions. Compound-treated PRMT1 activity was expressed as background-corrected counts (in cpm) normalized to the DMSO control.

FLAG-tagged PRMT1 [2] = target: T1, FLAG-tagged PRMT1; assay: Fluorescence-based in vitro PRMT assay (F-PRMT assay), PRMT1; assay type: biochemical; settings: for activation at 100 µM: read-out: enhancement (increase) of PRMT1 enzymatic activity
[3] = tested on: FLAG-tagged PRMT1 and His-tagged PRMT1; assay: Pulldown assay of PRMT1 homodimerization; assay type: binding; settings: 200 (and 500) μM compound vs DMSO
Text: The poses were obtained by docking with HYBRID onto previously obtained docking poses of TR-033 (TR-07 in cyan) and TR-036 (TR-07 in red). The two monomers are colored in dark and light gray. The dimerization arm of the right monomer is colored in pale pink. The αY helix of the other monomer is colored pale green. The SAH location (derived from a superposition with PDB ID 6NT2) is indicated in pale yellow, but the molecule was not present during the docking calculations. The two images on the right show a close-up view of each docking pose separately. […] The dashed line separates the first and the second monomer. […] The N-terminal αY helix, the SAH location (derived from a superposition with PDB ID 3Q7E), the arginine acceptor site (derived from a superposition with PDB ID 1OR8), the Double E loop, and the dimerization arm are indicated. […] Subsequently, FLAG-beads were washed and bead-bound proteins were analyzed together with an His-tagged PRMT1 input (20 ng) by Western blot using antibodies against the His- and FLAG-tags. As negative control, anti-FLAG resin saturated with FLAG peptide was incubated with His-tagged PRMT1. The His-PRMT1 signals were densitometrically quantified, corrected to the FLAG-PRMT1 signals, and expressed relative to the solvent control, as specified by the numbers below the immunostainings. Molecular weights (kDa) of the protein marker are indicated.
To evaluate the effect of small-molecule PRMT1 modulators on the dimerization of His-tagged and FLAG-tagged PRMT1, pulldown assays were conducted. For the binding reactions, 1 μg of bead-bound FLAG-tagged PRMT1 was preincubated with or without compounds at a total volume of 200 μL IPH buffer (50 mM Tris/HCl pH 8.0, 5 mM EDTA, 0.5% (v/v) NP-40, 150 mM NaCl) containing protease inhibitors (leupeptin, aprotinin, PMSF; Sigma-Aldrich) at 4 °C and under gentle agitation for 30 min. Subsequently, 0.02 μg His-tagged PRMT1 was added per reaction and incubated at 4 °C and under gentle agitation for 15 min. Finally, the beads were washed 3 times in IPH buffer containing 400 mM NaCl and analyzed by SDS-PAGE and immunoblotting.

[4] = 100 μM compound, increase over solvent-treated activity

Compound: CCN(CC)Cc1cccc(N/C=C2\C(=O)NC(=O)c3ccccc32)c1.Cl [TR-036, (Z )-N-(3-{[(1,3-Dioxo-2,3-dihydroisoquinoline-4(1 H )-ylidene)methyl]amino}benzyl)-N -ethylethanaminium chloride]
- PRMT1 methylation activity toward GST-GAR, liquid scintillation counting (FLAG-tagged PRMT1 [1]): increased
- PRMT1 activity compared to the solvent-treated activity of 100% (FLAG-tagged PRMT1 [2]; 100 μM compound): 215–225%
- activation at 100 µM (FLAG-tagged PRMT1 [2]; [4]): ≥ 60%
- interaction of FLAG-tagged PRMT1 and His-tagged PRMT1 (homodimerization) [3]: elevated interaction of the two PRMT1 species

Compound: (Z)-2-(2-{[(1,3-Dioxo-2,3-dihydroisoquinolin-4(1H)-ylidene)methyl]amino}phenyl)-N,N-dimethylethan-1-aminium chloride [ICTR-059]
- PRMT1 methylation activity toward GST-GAR, liquid scintillation counting (FLAG-tagged PRMT1 [1]): increased
- PRMT1 activity compared to the solvent-treated activity of 100% (FLAG-tagged PRMT1 [2]; 100 μM compound): up to 200%
- interaction of FLAG-tagged PRMT1 and His-tagged PRMT1 (homodimerization) [3]: elevated interaction of the two PRMT1 species

Compound: CN(C)Cc1cccc(-c2ccc3[nH]c(=O)c4ccccc4c3c2)c1 [TR-033, 2-{3-[(Dimethylamino)methyl]phenyl}phenanthridin-6(5H)-One]
- PRMT1 methylation activity toward GST-GAR, liquid scintillation counting (FLAG-tagged PRMT1 [1]): increased
- PRMT1 activity compared to the solvent-treated activity of 100% (FLAG-tagged PRMT1 [2]; 100 μM compound): 215–225%
- effect on PRMT1 activity (in words) (FLAG-tagged PRMT1 [2]; 100 μM compound): significantly increased PRMT1 activity
- activation at 100 µM (FLAG-tagged PRMT1 [2]; [4]): ≥ 60%
- interaction of FLAG-tagged PRMT1 and His-tagged PRMT1 (homodimerization) [3]: elevated interaction of the two PRMT1 species

Compound: CN(C)Cc1cccc(CN/C=C2\C(=O)NC(=O)c3ccccc32)c1.Cl [TR-07, (Z)-1-[3-({[(1,3-Dioxo-2,3-dihydroisoquinolin-4(1H)-lidene)methyl]amino}methyl)phenyl]-N,N-dimethylmethanaminium chloride]
- PRMT1 methylation activity toward GST-GAR, liquid scintillation counting (FLAG-tagged PRMT1 [1]): increased
- enhancement (increase) of PRMT1 enzymatic activity (FLAG-tagged PRMT1 [2]; [4]): +45%
- Efficacy ±Δ% (PRMT1) (FLAG-tagged PRMT1 [2]; Table 1, 100 μM compound, mean % difference of activity vs solvent control (100%), - inhibition, + activation, n = 3): +45%
- Efficacy ±∆% (PRMT1) (FLAG-tagged PRMT1 [2]; Table S3, 100 µM compound, mean % difference vs solvent control (100%), n≥3): +45%
- EC50 (FLAG-tagged PRMT1 [2]; read-out: half-maximal effective concentration (EC50) for PRMT1): 108 µM
- interaction of FLAG-tagged PRMT1 and His-tagged PRMT1 (homodimerization) [3]: elevated interaction of the two PRMT1 species
